Measurements as given in patent US20170066712A1, “NOVEL MOLECULES THAT SELECTIVELY INHIBIT HISTONE DEACETYLASE 6 RELATIVE TO HISTONE DEACETYLASE” (The Trustees of Columbia University in the City of New York, priority 2011, published 2017).

Experiments:
HDAC6 = target: T1, HDAC6 (Homo sapiens, UniProt Q9UBN7); experiment: Recombinant HDAC1 and HDAC6 selective inhibitory potency; type: biochemical
T1 sequence (Q9UBN7 1-1215): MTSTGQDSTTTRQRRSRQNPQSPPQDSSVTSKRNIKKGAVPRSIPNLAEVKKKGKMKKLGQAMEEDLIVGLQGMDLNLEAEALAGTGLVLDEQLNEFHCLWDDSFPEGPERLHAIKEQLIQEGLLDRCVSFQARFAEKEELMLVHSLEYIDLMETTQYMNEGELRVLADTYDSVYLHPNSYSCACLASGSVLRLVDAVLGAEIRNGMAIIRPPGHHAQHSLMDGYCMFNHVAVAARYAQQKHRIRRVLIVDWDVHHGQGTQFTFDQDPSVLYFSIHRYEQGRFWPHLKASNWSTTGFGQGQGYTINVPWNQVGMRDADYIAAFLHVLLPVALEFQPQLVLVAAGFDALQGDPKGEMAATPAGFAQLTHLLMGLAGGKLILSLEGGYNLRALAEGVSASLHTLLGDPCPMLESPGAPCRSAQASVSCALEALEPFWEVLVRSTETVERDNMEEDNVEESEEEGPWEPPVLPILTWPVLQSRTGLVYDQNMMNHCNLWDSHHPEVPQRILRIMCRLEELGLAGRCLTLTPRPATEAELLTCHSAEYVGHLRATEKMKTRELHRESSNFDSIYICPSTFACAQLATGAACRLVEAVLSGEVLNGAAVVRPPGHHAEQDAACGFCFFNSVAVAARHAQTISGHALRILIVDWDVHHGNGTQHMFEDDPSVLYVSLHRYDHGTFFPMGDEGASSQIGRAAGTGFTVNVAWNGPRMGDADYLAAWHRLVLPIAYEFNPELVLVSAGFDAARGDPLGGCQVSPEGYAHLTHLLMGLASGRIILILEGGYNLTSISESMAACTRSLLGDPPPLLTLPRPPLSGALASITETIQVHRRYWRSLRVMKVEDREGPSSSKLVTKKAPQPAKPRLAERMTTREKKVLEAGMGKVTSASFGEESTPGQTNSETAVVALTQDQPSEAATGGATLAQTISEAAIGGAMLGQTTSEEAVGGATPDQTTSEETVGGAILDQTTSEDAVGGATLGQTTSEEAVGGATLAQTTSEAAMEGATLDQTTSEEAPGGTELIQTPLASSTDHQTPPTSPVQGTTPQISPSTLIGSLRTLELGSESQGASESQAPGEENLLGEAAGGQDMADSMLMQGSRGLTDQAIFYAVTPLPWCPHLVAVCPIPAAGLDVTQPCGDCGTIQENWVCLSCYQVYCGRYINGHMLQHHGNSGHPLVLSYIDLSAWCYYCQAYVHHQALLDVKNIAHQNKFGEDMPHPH
Experimental: (§1) Recombinant HDAC1 and HDAC6 are used to evaluate the selective inhibitory potency of each compound. Cell based assays: Normal cells (Human Foreskin Fibroblast cells), LNCaP (human prostate cancer cells), MCF-7 (human breast cancer cells, A549 (human adenocarcinoma of lung cells) and ARP-1 (human multiple myeloma cells) are used in these assays. Cells were cultured for up to 72 hr without and with the potential HDAC6-selective inhibitor. SAHA was used as a control. Cell number and cell viability were determined by enumeration. Proteins were extracted from cells and assayed for accumulation of acetylated tubulin and acetylated histones. All methods are described in Namdar et al., PNAS, 2010, 107:20003-8. In vivo animal studies: Potential HDAC6 inhibitor compounds are further assayed by administration to mice for up to 5 days with daily injections. Animals are sacrificed and tissues are analyzed for accumulation of acetylated tubulin and acetylated histones.

acetylated alpha-tubulin = experiment: Accumulation of acetylated alpha-tubulin in LNCaP cells (blot); type: cell-based, human; conditions: for identified as HDAC6-selective inhibitor: on the basis of accumulation of acetylated tubulin without accumulation of acetylated histones
From the text: (§2) FIG. 2. Blot showing accumulation of acetylated alpha-tubulin and acetylated histone H3 in LNCaP cells cultured with compound 6. GADPH used as loading control.
as §1

LNCaP cells [1] = experiment: Cell viability assay in LNCaP cells; type: cell-based
Experimental: FIG. 4. Cell viability assay data in LNCaP cells with compound 6.
as §1

LNCaP cells [2] = experiment: Cell growth assay in LNCaP cells; type: cell-based, human; conditions: FIG. 3
Experimental: FIG. 3. Cell growth assay data in LNCaP cells with compound 6.
as §1

acetylated histone H3 = experiment: Accumulation of acetylated histone H3 in LNCaP cells (blot); type: cell-based, human; conditions: FIG. 2
From the text: as §2, §1

cell motility = conditions: Haggarty et al. (6); cited from earlier work
[3] = target: T2, C-terminal catalytic domain of HDAC6 (Homo sapiens, UniProt Q9UBN7); conditions: Haggarty et al. (6); cited from earlier work
T2 sequence (Q9UBN7 1-1215): T1 sequence (Q9UBN7 1-1215)

microtubules = conditions: Haggarty et al. (6); cited from earlier work
known human HDACs = conditions: background statement; cited from earlier work

HDAC inhibitor selectivity for HDAC6 relative to HDAC1 (HDAC6)	Structure (SMILES)	further results
selective for HDAC6 relative to HDAC1	O=C(NO)c1cccc2c1ccn2CC(=O)N(CCO)c1ccccc1 [Compound 37]	–
selective for HDAC6 relative to HDAC1	O=C(NO)c1cccc2c1ncn2CC(=O)N(CCO)c1ccccc1 [Compound 43]	–
selective for HDAC6 relative to HDAC1	O=C(CC(=O)Nc1ccc(CC(=O)N(CCO)c2ccccc2)cc1)NO [Compound 31]	–
selective for HDAC6 relative to HDAC1	O=C(NO)c1ccc(C(=O)N(CCO)c2ccccc2)cc1 [Compound 33]	–
selective for HDAC6 relative to HDAC1	O=C(CCc1ccc(C(=O)N(CCO)c2ccccc2)cc1)NO [Compound 35]	–
selective for HDAC6 relative to HDAC1	O=C(Cc1ccc(C(=O)N(CCO)c2ccccc2)cc1)NO [Compound 34]	–
selective for HDAC6 relative to HDAC1	O=C(CCc1ccc(CC(=O)N(CCO)c2ccccc2)cc1)NO [Compound 36]	–
selective for HDAC6 relative to HDAC1	O=C(NO)c1cccc(CC(=O)N(CCO)c2ccccc2)c1 [Compound 79, N-hydroxy-3-(2-((2-hydroxyethyl)(phenyl)amino)-2-oxoethyl) benzamide]	–
selective for HDAC6 relative to HDAC1	O=C(CN(CCO)c1ccccc1)Nc1ccc(C(=O)NO)cc1 [Compound 30]	–
selective for HDAC6 relative to HDAC1	O=C(CN(CCO)c1ccccc1)Oc1ccc(C(=O)NO)cc1 [Compound 32]	–

More lines, now with the values behind:

Structure (SMILES)	HDAC inhibitor selectivity for HDAC6 relative to HDAC1 (HDAC6)	further results
O=C(NO)c1ccc(CC(=O)N(CCO)c2cccc3cccnc23)cc1 [Compound 14, N-hydroxy-4-(2-((2-hydroxyethyl)(quinolin-8-yl)amino)-2-oxoethyl) benzamide]	selective for HDAC6 relative to HDAC1	identified as HDAC6-selective inhibitor (acetylated alpha-tubulin): HDAC6-selective inhibitors
O=C(NO)Nc1ccc(CC(=O)N(CCO)c2ccccc2)cc1 [Compound 24]	selective for HDAC6 relative to HDAC1	–
O=C(NO)c1ccc(CC(=O)N(CCO)c2ccccc2)cc1 [Compound 6, N-hydroxy-4-(2-((2-hydroxyethyl)(phenyl)amino)-2-oxoethyl) benzamide]	selective for HDAC6 relative to HDAC1	cell viability (LNCaP cells [1]; FIG. 4): does not decrease cell viability; death of LNCaP cells (LNCaP cells [1]; concentrations as high as 32 μM): no detectable death of LNCaP cells; levels of tubulin acetylation (acetylated alpha-tubulin; LNCaP cells, FIG. 2): significant levels of tubulin acylation were present; levels of tubulin acetylation reached in the absence of histone acetylation, compared with tubacin (acetylated alpha-tubulin; in the absence of histone acetylation): greater than selective levels with tubacin; identified as HDAC6-selective inhibitor (acetylated alpha-tubulin): HDAC6-selective inhibitors; cell number (LNCaP cells [2]): inhibits cell number; induction of H3 acetylation (acetylated histone H3): without induction of H3 acetylation
O=C(NO)c1ccc(NCC(=O)N(CCO)c2ccccc2)cc1 [Compound 27]	selective for HDAC6 relative to HDAC1	–
O=C(/C=C/C(=O)Nc1ccc(CC(=O)N(CCO)c2ccccc2)cc1)NO [Compound 21]	selective for HDAC6 relative to HDAC1	–
O=C(CCCCCCC(=O)Nc1ccc([C@H]2O[C@@H](CSc3nc(-c4ccccc4)c(-c4ccccc4)o3)C[C@@H](c3ccc(CO)cc3)O2)cc1)NO [tubacin]	–	cell motility (cell motility): decreased cell motility; inhibition of C-terminal catalytic domain of HDAC6 (α-tubulin deacetylation) [3]: can be inhibited; stability of microtubules (microtubules): did not affect the stability of microtubules
O=C(NO)C(=O)Nc1ccc(CC(=O)N(CCO)c2ccccc2)cc1 [Compound 26]	selective for HDAC6 relative to HDAC1	–
O=C(CCCCCCC(=O)Nc1ccccc1)NO [SAHA, suberoylanilide hydroxamic acid, reference compound]	–	selectivity of inhibitory activity among known human HDACs (known human HDACs): not selective among the known human HDACs; death of LNCaP cells (LNCaP cells [1]; SAHA control): kills LNCaP cells
